Experimental data from a compilation of properties of binary mixtures (doi:10.1007/s10953-019-00842-w).

Test: xn = mol fraction of the nth substance listed
Conditions: 101 kPa

CC1COC(=O)O1 (stereo not given) + CC[n+]1ccn(C)c1.O=S(=O)([O-])C(F)(F)F
x2 = 0
Conditions	viscosity [mPa·s]
288.15 K	3.53
298.15 K	2.5
303.15 K	2.2
308.15 K	1.97
313.15 K	1.79
318.15 K	1.65
323.15 K	1.538
328.15 K	1.451
333.15 K	1.373
338.15 K	1.307
348.15 K	1.201
353.15 K	1.162

CC[n+]1ccn(C)c1.O=S(=O)([O-])C(F)(F)F + CC1COC(=O)O1
viscosity [mPa·s]
Conditions	x1 = 0.0999	x1 = 0.1999	x1 = 0.3005	x1 = 0.3998	x1 = 0.5001	x1 = 0.601	x1 = 0.6987	x1 = 0.8004	x1 = 0.8998	x1 = 1
288.15 K	6.25	8.7	–	–	–	24.4	30.7	39.1	46.9	59.2
293.15 K	–	7.33	9.18	12.2	15.69	20.5	25.6	–	38.8	48.6
298.15 K	4.53	6.2	7.76	10.37	13.37	17.6	21.7	–	–	–
303.15 K	–	5.31	6.65	–	11.43	15.01	–	23.1	27.6	–
308.15 K	3.4	4.57	5.77	7.65	–	12.99	16.02	19.9	23.6	29
313.15 K	3.03	4.01	5.07	6.67	8.69	11.33	13.95	17.2	–	–
318.15 K	2.7	–	–	–	–	9.92	12.22	15.08	–	21.5
323.15 K	2.42	3.13	3.94	5.12	6.8	8.79	–	13.15	–	18.6
328.15 K	2.17	–	–	–	–	–	9.52	11.61	13.62	16.5
333.15 K	2.01	2.52	–	4.07	5.53	6.99	–	–	12.12	14.61
338.15 K	1.84	2.28	2.83	3.65	4.99	–	7.59	–	10.74	13.02
343.15 K	–	2.14	2.6	–	4.51	5.75	6.92	8.33	9.66	11.52
348.15 K	1.611	1.97	2.41	3.14	4.14	5.26	6.33	7.61	8.9	10.29
353.15 K	1.57	1.89	–	2.94	3.9	4.9	5.92	7.17	–	–
